From paper PMC7477889 (SLAS discovery : advancing life sciences R & D, 2020)
“Also recorded” adds a separate entry of the source. Read-outs that look alike come from different tables or passages of the source.

Tests used:
[1] = target: T1, GFP-ARER (chimeric androgen receptor with ERα DBD) (Homo sapiens, UniProt P10275, A574V/A587S/A588I/A597P/A623V/C570Y/D601Q/DEL544-554/E566Y/E589Q/F607N/G564N/G578E/I562V/K558R/K591H/K593D/L561A/L575W/L595M/L627K/N611S/P555K/P556E/P613Q/Q557T/Q592N/R599T/S579G/S598A/S614A/T542S/T559Y/T576S/T626M/V582A); assay: GFP-ARER:PRL-HeLa high content analysis assay; assay type: cell-based
T1 sequence (P10275 with tags, fused parts or gaps T542S/DEL544-554/P555K/P556E/Q557T/K558R/T559Y/L561A/I562V/G564N/E566Y/C570Y/A574V/L575W/T576S/G578E/S579G/V582A/A587S/A588I/E589Q/K591H/Q592N/K593D/L595M/A597P/S598A/R599T/D601Q/F607N/N611S/P613Q/S614A/A623V/T626M/L627K): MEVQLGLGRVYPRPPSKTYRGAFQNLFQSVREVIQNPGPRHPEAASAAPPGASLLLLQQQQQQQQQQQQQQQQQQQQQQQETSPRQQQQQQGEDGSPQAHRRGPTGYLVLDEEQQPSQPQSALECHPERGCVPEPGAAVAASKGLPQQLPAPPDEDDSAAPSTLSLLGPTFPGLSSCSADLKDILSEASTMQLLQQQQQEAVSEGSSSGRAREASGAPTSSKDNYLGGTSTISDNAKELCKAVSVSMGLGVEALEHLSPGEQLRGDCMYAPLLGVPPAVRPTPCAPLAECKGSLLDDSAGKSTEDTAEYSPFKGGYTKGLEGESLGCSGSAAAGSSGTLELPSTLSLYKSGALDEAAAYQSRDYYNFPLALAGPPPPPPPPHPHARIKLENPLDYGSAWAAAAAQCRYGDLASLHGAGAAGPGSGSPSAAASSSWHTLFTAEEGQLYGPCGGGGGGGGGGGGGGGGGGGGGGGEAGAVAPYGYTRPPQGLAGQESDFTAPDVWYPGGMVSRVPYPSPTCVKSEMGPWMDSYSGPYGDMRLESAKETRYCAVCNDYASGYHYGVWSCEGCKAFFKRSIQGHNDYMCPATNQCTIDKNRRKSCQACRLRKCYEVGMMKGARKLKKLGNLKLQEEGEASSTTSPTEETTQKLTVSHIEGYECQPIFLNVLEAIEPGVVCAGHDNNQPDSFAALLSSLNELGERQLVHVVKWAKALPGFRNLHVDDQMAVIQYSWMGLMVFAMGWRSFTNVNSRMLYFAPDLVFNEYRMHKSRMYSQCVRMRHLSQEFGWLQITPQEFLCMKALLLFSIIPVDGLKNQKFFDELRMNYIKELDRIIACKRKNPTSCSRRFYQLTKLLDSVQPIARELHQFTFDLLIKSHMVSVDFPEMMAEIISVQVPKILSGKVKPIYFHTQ

GFP-AR = conditions: read-out: Nuclear Translocation EC50, cited from earlier work
[2] = system: GFP-PRER (chimeric progesterone receptor with ERα DBD); conditions: result in words; cited from earlier work
[3] = AUC normalized to vehicle and DHT controls, result in words
[4] = GFP-ARER:PRL-HeLa, 2 hours, result in words

Structure (SMILES): C[C@]12CC[C@@H]3c4ccc(O)cc4CC[C@H]3[C@@H]1CCC2=O [estrone]
- AUC score for nuclear translocation, chromatin binding, and receptor stabilization (k-means cluster) [1, 3]: low/moderate AUC score
- GFP-ARER nuclear translocation [1, 4]: strongest responders
- visible chromatin binding (PRL array spot) by GFP-ARER [1, 4]: induce a visible spot indicating chromatin binding

Structure (SMILES): CC(C)(O)C(=O)Nc1ccc([N+](=O)[O-])c(C(F)(F)F)c1 [hydroxyflutamide]
- GFP-ARER nuclear translocation [1]: strongest responders; also recorded: induced GFP-ARER nuclear translocation
- nuclear translocation AUC score (k-means Cluster 3) [1]: stronger AUC scores
- visible chromatin binding (PRL array spot) by GFP-ARER [1]: undetectable evidence of chromatin binding

Structure (SMILES): C[C@]12CCC(=O)C[C@@H]1CC[C@@H]1[C@@H]2CC[C@]2(C)[C@@H](O)CC[C@@H]12 [DHT, 5α-dihydrotestosterone]
- EC50 (GFP-AR; GFP-AR:HeLa): 11 ± 2 nM

Structure (SMILES): Cc1cc(C(C)(C)c2cc(C)c(O)c(C)c2)cc(C)c1O [tetramethyl-bisphenol A]
- nuclear translocation response ([1]; supplemented ATSDR chemicals and mixtures, 0.1 nM to 10 μM (chemicals), 200-fold to 200,000-fold dilution (mixtures), 2 hours): 10-12 % of DHT response

Structure (SMILES): CN(C)c1ccc([C@H]2C[C@]3(C)[C@@H](CC[C@]3(O)CCCO)[C@@H]3CCC4=CC(=O)CCC4=C32)cc1 [ZK98299]
- visible chromatin binding in the GFP-PRER:PRL-HeLa cell model [2]: does not

Structure (SMILES): CC#C[C@]1(O)CC[C@H]2[C@@H]3CCC4=CC(=O)CCC4=C3[C@@H](c3ccc(N(C)C)cc3)C[C@@]21C [RU486]
- visible chromatin binding in the GFP-PRER:PRL-HeLa cell model [2]: induces visible chromatin binding

Structure (SMILES): CC12CC1(C)C(=O)N(c1cc(Cl)cc(Cl)c1)C2=O (stereo not shown) [promycidone, procymidone]
- nuclear translocation AUC score (k-means Cluster 3) [1, 3]: stronger AUC scores
- GFP-ARER nuclear translocation [1, 4]: strongest responders
